Data taken from paper PMC8125089, “Synthesis, Structure, Carbohydrate Enzyme Inhibition, Antioxidant Activity, In Silico Drug-Receptor Interactions and Drug-Like Profiling of the 5-Styryl-2-Aminochalcone Hybrids” (Molecules, 2021).
Like-named read-outs stand apart in the source and are kept apart here.

What was measured:
[1] = DPPH radical scavenging assay; settings: free radical scavenging; mean ± SD of three independent experiments
Description: (§1) Reduced or lack of antioxidant activity of these compounds was attributed to the presence of intramolecular N-H···O hydrogen bond between amino and kenone group of the 2-aminochalcones and their sulfanamido derivatives which is envisaged to deactivate the unsaturated moiety. […] A combination of the styryl and the electrophilic α,β-unsaturated carbonyl arms on the same molecular framework encouraged us to evaluate the test compounds for antioxidant properties through the DPPH and NO radical scavenging assays. […] Compound 2a has potential to inhibit both α-glucosidase and α-amylase activities, and to reduce oxidative stress. […] The observed free radical scavenging activities of these molecular hybrids is presumably due to the presence of styryl arm on the intramolecularly hydrogen bonded 2-aminochalcone scaffold.
The antioxidant activities of the test compounds against ascorbic acid (Sigma Aldrich, Saint Louis, Missouri, USA) as a positive control were evaluated using 2,2-diphenyl-1-picrylhydrazyl (DPPH) radical scavenging assay developed by Zhu et al. as described in our previous study. Triplicate solutions (20 µL) of the test compounds and ascorbic acid in DMSO (final concentrations: 5, 10, 25, 50, and 100 µM) were added into each designated well of a 96-well plate. A solution of 0.20 mM DPPH (20 µL) in methanol was added to each well, and the 96-well plate was wrapped with aluminum foil and incubated in the dark for 45 min. Five absorbance readings were recorded at 512 nm using Varioskan flash microplate spectrophotometer reader. The average values obtained from the absorbance readings were used to determine the IC50 and standard deviation values.

[2] = NO free radical scavenging assay (sodium nitroprusside, Griess reaction); settings: mean ± SD of three independent experiments
Description: as §1
Nitric oxide was generated from sodium nitroprusside and measured by Griess’ reaction following the literature method. The experiment was done in triplicate with ascorbic acid (vitamin C) used as a positive control for the assay. In a 96 well plate, 5 μL of the test compounds (0.1, 0.5, 1.0, 5.0 and 10.0 μM in methanol) or the positive control were mixed with 5 μL of 10 mM sodium nitroprusside prepared in phosphate buffered saline (pH = 7.4) and allowed to incubate at room temperature for 2.5 h. Afterwards, 30 μL of the Griess reagent (a mixture of 0.2% N-(1-naphthyl)ethylenediamine dihydrochloride and 2% sulfanilamide in […]) was added to each well and the mixtures were and allowed to stand at room temperature for 30 min. Five absorbance readings were recorded at 546 nm using Varioskan flash microplate spectrophotometer reader.

Vero cells = assay: MTT cytotoxicity assay on Vero cells; type: cell-based; settings: monkey, 24 h treatment
Procedure: (§2) Metabolic diseases such as diabetes require a stable long-term therapy accompanied by well tolerated and low toxicity, and this encouraged us to evaluate the safety profile of 2a and 3e as potential antidiabetic agents at least in vitro. The compounds were evaluated for cytotoxicity against the normal monkey kidney cells (Vero cells) and the adenocarcinomic human epithelial (A549) cell line using the 3-(4,5-dimethylthiazol-2-yl)-2, 5-diphenyltetrazolium (MTT) assay.
The cytotoxicity activity of compounds 2a and 3e was evaluated against doxorubicin (positive control) using the 3-(4,5-dimethylthiazol-2-yl)-2,5-diphenyltetrazolium bromide (MTT) assay following a modification of a literature method by Mosmann. The Vero and A549 cells were maintained in Dulbecco′s modified Eagle′s medium (DMEM; Gibco) supplemented with 10% Fetal bovine serum (FBS) and 1% penicillin/streptomycin in culture flasks and incubated at 37 °C in 5% CO2. When the cells reached 85% confluency, they were detached using 2% trypsin. Cell count was performed using a handheld automated cell counter (Scapter 3.0™, Merck). The cells were seeded at 1 × 10^5 cells/well and incubated overnight to allow cell attachment. […] Five absorbance readings were recorded at 517 nm using Varioskan flash microplate spectrophotometer reader.

α-glucosidase = α-glucosidase (Saccharomyces cerevisiae, UniProt P53341); assay: Enzyme kinetic studies (Lineweaver-Burk and Dixon plots); type: biochemical; settings: α-glucosidase
α-glucosidase, sequence (P53341 whole entry): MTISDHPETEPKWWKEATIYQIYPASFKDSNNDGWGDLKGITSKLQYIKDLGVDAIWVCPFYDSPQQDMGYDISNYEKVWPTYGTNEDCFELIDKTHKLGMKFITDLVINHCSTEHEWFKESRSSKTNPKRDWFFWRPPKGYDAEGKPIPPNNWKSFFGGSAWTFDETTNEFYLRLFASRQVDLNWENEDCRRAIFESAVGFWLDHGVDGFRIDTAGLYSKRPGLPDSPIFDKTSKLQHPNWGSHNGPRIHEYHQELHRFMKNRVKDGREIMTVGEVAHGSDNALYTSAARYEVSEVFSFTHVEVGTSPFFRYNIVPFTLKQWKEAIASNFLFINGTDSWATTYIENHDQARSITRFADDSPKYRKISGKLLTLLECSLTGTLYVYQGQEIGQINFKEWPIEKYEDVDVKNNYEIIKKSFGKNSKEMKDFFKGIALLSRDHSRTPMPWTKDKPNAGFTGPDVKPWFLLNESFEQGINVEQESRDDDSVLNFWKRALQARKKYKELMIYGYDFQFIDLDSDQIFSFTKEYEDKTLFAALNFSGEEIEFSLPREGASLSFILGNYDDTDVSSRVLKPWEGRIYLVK
Procedure: The Lineweaver-Burk plot of 1/V versus 1/[S] in the presence of different concentrations of compound 2a in the case of α-glucosidase gave a series of straight lines that intersect on the x-axis (Figure 3a). […] The compound probably binds to the active site and other allosteric sites on the enzyme.
Enzyme kinetics studies were performed on compounds 2a and 3e with increasing inhibitor and substrate concentrations. In the experimental procedure, inhibitors concentrations of 0.1, 0.5, 1, 2.5 µM, and final substrate concentration were 0.1, 0.5, 1 and 5 mM were used. 5 μL of the inhibitor and 2 μL of the enzyme (α-glucosidase) were added to each well of the 96-well plate. The reaction was incubated for 20 min at room temperature. 18 μL of the substrate, PNPG (4-nitrophenyl α-D-glucopyranoside) was then added and absorbance readings recorded after every 2 min at wavelength of 400 nm using a Varioskan flash microplate spectrophotometer reader. Lineweaver-Burk plot (the inverse of velocity (1/v) against the inverse of the substrate concentration (1/[S]) were used to determining the type of inhibition, while the inhibitor constant was obtained from the Dixon plot (the inverse of velocity (1/v) against concentration of inhibitor at each substrate concentration)

A549 cells = assay: MTT cytotoxicity assay on A549 cells; type: cell-based, human; settings: 24 h treatment
Procedure: as §2
The cytotoxicity activity of compounds 2a and 3e was evaluated against doxorubicin (positive control) using the 3-(4,5-dimethylthiazol-2-yl)-2,5-diphenyltetrazolium bromide (MTT) assay following a modification of a literature method by Mosmann. The Vero and A549 cells were maintained in Dulbecco′s modified Eagle′s medium (DMEM; Gibco) supplemented with 10% Fetal bovine serum (FBS) and 1% penicillin/streptomycin in culture flasks and incubated at 37 °C in 5% CO2. When the cells reached 85% confluency, they were detached using 2% trypsin. Cell count was performed using a handheld automated cell counter (Scapter 3.0™, Merck). The cells were seeded at 1 × 10^5 cells/well and incubated overnight to allow cell attachment. After 24 h, the cells were treated with different concentrations (0, 2.5, 5, 10, 25, 50, 100 µM) of the test compounds and the reference stand. The cells were incubated for 24 h followed by treatment with 20 µL of MTT solution (5 mg/mL). After 4 h incubation period, DMSO (100 µL) was added to each well to dissolve the formazan crystals. Five absorbance readings were recorded at 517 nm using Varioskan flash microplate spectrophotometer reader.

[3] = molecular target: yeast α-glucosidase from Saccharomyces cervisiae (Saccharomyces cerevisiae, UniProt P53341); assay: biochemical
yeast α-glucosidase from Saccharomyces cervisiae, sequence (P53341 whole entry): as above
Procedure: All the tests and analyses were performed in triplicates following a modified published protocol described in our previous study. […] 2.5, 5, 10, 25 and 50 µM. α-Glucosidase solution (0.48 u/mL, 20 µL), phosphate buffer (100 mM, pH 6.8; 30 µL) and the test sample (20 µL) as well as the reference standard were added in the designated wells, and the reaction mixtures were incubated at 37 °C for 10 min. 2 mM p-nitrophenyl-α-D-glucopyranoside (20 µL) was added to each of the wells containing reaction mixture to initiate the reaction. The reaction was pre-incubated for 30 min at 37 °C. The reaction was stopped by the addition of 20 μL of a solution of sodium carbonate (200 mM) to each well. Five absorbance readings were recorded for each triplicate run at a wavelength of 400 nm using Varioskan flash microplate spectrophotometer (Thermo Scientific, Waltham, MA, USA). The average values obtained from the readings were used to determine the IC50 and standard deviation values. The values were calculated by the nonlinear regression analysis and expressed as the mean SD of three distinct experiments using Graph Pad Prism software.

α-amylase = assay: α-Amylase inhibition assay (α-Amylase Inhibitor Screening Kit); type: biochemical; settings: mean ± SD of three independent experiments
Procedure: The α-amylase assay was performed in triplicate using a 96-well plate following the procedure by the manufacturer as outlined in the α-Amylase Inhibitor Screening Kit (Catalog No. K482; Bio Vision). […] For inhibitor control (10 µL of α-amylase inhibitor and 40 µL of assay buffer were added to 3 wells), enzyme control (50 µL of assay buffer was added to three wells) and 50 µL of the test compounds were added into the remaining wells. A solution of α-amylase enzyme (50 µL) prepared by adding 490 µL of assay buffer to 10 µL of α-amylase enzyme was added to each of the wells containing the reaction mixture to initiate the reaction. The plate was incubated for 10 min at room temperature in the dark. Five different absorbance readings were recorded for each triplicate run at a wavelength of 405 nm using Varioskan flash microplate spectrophotometer (Thermo Scientific, Waltham, MA, USA). The IC50 and SD values were calculated using graph pad prism.

[4] = mean ± SD of three independent experiments, pH 6.8, 37 °C, read-out: IC50 (SD) α-Glucosidase

Row | Compound | IC50 [1] [µM] | IC50 [2] [µM] | IC50 at 24 h (Vero cells) [µM] | Ki (α-glucosidase; PNPG substrate, read-out: Ki (Dixon plot)) [µM] | mode of inhibition (α-glucosidase; Lineweaver-Burk and Dixon plots) | IC50 at 24 h (A549 cells; human, A549 cells) [µM] | IC50 [3, 4] [µM] | IC50 (α-amylase) [µM] | melting point [°C] | IC50 [3] [µM] | IC50 (A549 cells) [µM]
1 | O=C1O[C@H]([C@@H](O)CO)C(O)=C1O [Ascorbic acid, reference compound] | 4.2 ± 0.27 | 6.14 ± 0.21 |  |  |  |  |  |  |  |  | 
2 | CC(=O)c1cc(/C=C/c2ccccc2)ccc1N [Compound 2a, (E)-1-(2-Amino-5-styrylphenyl)ethan-1-one] | 7.1 ± 0.32 | 8.3 ± 0.22 | 164.6 ± 0.59 | 0.3 ± 0.04 | non-competitive mode of inhibition | 65.7 ± 0.14 | 5.4 ± 0.1 | 2.3 ± 0.2 | 119 to 120 |  | 
3 | CC(=O)c1cc(/C=C/c2ccc(Cl)cc2)ccc1N [Compound 2c, (E)-1-(2-Amino-5-(4-chlorostyryl)phenyl)ethan-1-one] | 10.4 ± 0.15 | 11.6 ± 0.43 |  |  |  |  |  | 5.8 ± 0.51 | 137 to 138 | 15.9 ± 0.34 | 
4 | Nc1ccc(/C=C/c2ccc(Cl)cc2)cc1C(=O)/C=C/c1cccc(F)c1 [Compound 3c, (E)-1-(2-Amino-5-((E)-4-Chlorostyryl)phenyl)-3-(3-fluorophenyl)prop-2-en-1-one] | 15.3 ± 0.1 | 10.6 ± 0.3 |  |  |  |  |  | 2.4 ± 0.1 | 187 to 188 | 12.6 ± 0.31 | 
5 | Nc1ccc(/C=C/c2ccccc2)cc1C(=O)/C=C/c1cccc(F)c1 [Compound 3a, (E)-1-(2-Amino-5-((E)-styryl)phenyl)-3-(3-fluorophenyl)prop-2-en-1-one] | 21.6 ± 0.32 | 18.9 ± 0.54 |  |  |  |  |  | 10.7 ± 0.21 | 129 to 130 | 17.8 ± 0.32 | 
6 | COc1cccc2c1C(=O)c1c(O)c3c(c(O)c1C2=O)C[C@@](O)(C(=O)CO)C[C@@H]3O[C@H]1C[C@H](N)[C@H](O)[C@H](C)O1 [Doxorubicin, reference compound] |  |  |  |  |  |  |  |  |  |  | 1.14 ± 0.23
7 | COc1ccc(/C=C/c2ccc(N)c(C(C)=O)c2)cc1 [Compound 2d, (E)-1-(2-Amino-5-(4-methoxystyryl)phenyl)ethan-1-one] | 9.3 ± 0.23 | 25.9 ± 0.61 |  |  |  |  |  | 9 ± 0.31 | 139 to 140 | 30.7 ± 0.42 | 
8 | CC(=O)c1cc(/C=C/c2ccc(F)cc2)ccc1N [Compound 2b, (E)-1-(2-Amino-5-(4-fluorostyryl)phenyl)ethan-1-one] | 15.8 ± 0.21 | 7.2 ± 0.4 |  |  |  |  |  | 19.3 ± 0.42 | 149 to 150 | 12.7 ± 0.16 | 
9 | Nc1ccc(/C=C/c2ccc(F)cc2)cc1C(=O)/C=C/c1cccc(F)c1 [Compound 3b, (E)-1-(2-Amino-5-((E)-4-fluorostyryl)phenyl)-3-(3-fluorophenyl)prop-2-en-1-one] | 6.6 ± 0.33 | 5.3 ± 0.34 |  |  |  |  | 6.1 ± 0.24 | 15.6 ± 0.6 | 175 to 177 |  | 
10 | COc1ccc(/C=C/c2ccc(N)c(C(=O)/C=C/c3ccc(F)cc3)c2)cc1 [Compound 3h, (E)-1-(2-Amino-5-((E)-4-methoxystyryl)phenyl)-3-(4-fluorophenyl)prop-2-en-1-one] | 25.8 ± 0.43 | 20.2 ± 0.23 |  |  |  |  |  | 7.6 ± 0.2 | 153 to 154 | 10.5 ± 0.18 | 
11 | Nc1ccc(/C=C/c2ccc(F)cc2)cc1C(=O)/C=C/c1ccc(F)cc1 [Compound 3f, (E)-1-(2-Amino-5-((E)-4-fluorostyryl)phenyl)-3-(4-fluorophenyl)prop-2-en-1-one] | 18.5 ± 0.37 | 8.8 ± 0.33 |  |  |  |  | 6.9 ± 0.37 | 9.5 ± 0.41 |  |  | 
12 | COc1ccc(/C=C/c2ccc(N)c(C(=O)/C=C/c3cccc(F)c3)c2)cc1 [Compound 3d, (E)-1-(2-Amino-5-((E)-4-methoxystyryl)phenyl)-3-(3-fluorophenyl)prop-2-en-1-one] | 3.9 ± 0.21 | 7.9 ± 0.28 |  |  |  |  | 9.4 ± 0.5 | 7 ± 0.45 |  |  | 
13 | Nc1ccc(/C=C/c2ccc(Cl)cc2)cc1C(=O)/C=C/c1ccc(F)cc1 [Compound 3g, (E)-1-(2-Amino-5-((E)-4-chlorostyryl)phenyl)-3-(4-fluorophenyl)prop-2-en-1-one] | 5.2 ± 0.53 | 15.1 ± 0.19 |  |  |  |  |  | 1.7 ± 0.25 | 197 to 198 | 19.2 ± 0.47 | 
